# Measured values published in patent US20160251367A1, “SYNTHESIS OF TRITOQUALINE SALTS” (Chrysalis Pharma, priority 2014, published 2016).
# Assay: physchem
# Format: physicochemical
# Settings: not given
# From the text: The dissolution tests show a very substantial and surprising increase in tritoqualine.
Molecule,increase of the initial solubility of tritoqualine in water,solubility [M/L]
"CCOc1c(N)c2c(c(OCC)c1OCC)C(C1c3c(cc4c(c3OC)OCO4)CCN1C)OC2=O.Cl (centres unmarked) [Tritoqualine hydrochloride, tritoqualine hydrochloride]",500 times,0.25
tritoqualine sulfate,2500 times,1.25
"CCOc1c(N)c2c(c(OCC)c1OCC)C(C1c3c(cc4c(c3OC)OCO4)CCN1C)OC2=O.O=P(O)(O)O (centres unmarked) [Tritoqualine phosphate, tritoqualine phosphate]",31 000 times,–
"CCOc1c(N)c2c(c(OCC)c1OCC)C(C1c3c(cc4c(c3OC)OCO4)CCN1C)OC2=O.CS(=O)(=O)O (centres unmarked) [Tritoqualine methylsulfonate, tritoqualine methylsulfonate]",50 000 times,–
"CC(=O)O.CCOc1c(N)c2c(c(OCC)c1OCC)C(C1c3c(cc4c(c3OC)OCO4)CCN1C)OC2=O (centres unmarked) [Tritoqualine acetate, tritoqualine acetate]",1500 times,0.75
"CC1(C)C2CCC1(CS(=O)(=O)O)C(=O)C2.CCOc1c(N)c2c(c(OCC)c1OCC)C(C1c3c(cc4c(c3OC)OCO4)CCN1C)OC2=O (centres unmarked) [Tritoqualine camphorsulfonate, tritoqualine camphorsulfonate]",11 000 times,–
"CCOc1c(N)c2c(c(OCC)c1OCC)C(C1c3c(cc4c(c3OC)OCO4)CCN1C)OC2=O.O=C(O)C=CC(=O)O (centres unmarked) [Tritoqualine fumarate, tritoqualine fumarate]",15 000 times,–

# Same assay, conditions: water
row,Molecule,solubility [µM]
1,"CCOc1c(N)c2c(c(OCC)c1OCC)C(C1c3c(cc4c(c3OC)OCO4)CCN1C)OC2=O (racemic) [tritoqualine, 7-Amino-4,5,6-triethoxy-3-(5,6,7,8-tetrahydro-4-methoxy-6-methyl-1,3-dioxolo[4,5-g]isoquinolin-5-yl) phthalide]",500
